Measured values: patent US20250304620A1, “ANTIMICROBIAL PEPTIDE AND APPLICATION THEREOF” (priority 2023, published 2025)
≈ marks a conversion by molar mass, not a printed value. Non-standard residues stand in square brackets, D forms with d. Residues, ends and D or L forms follow the SMILES beside them. d2Nal = N[C@H](Cc1ccc2ccccc2c1)C(=O)O; d(hLeu) = CC(C)CC[C@@H](N)C(=O)O

Columns and labels:
[1] = Serum stability assay (residual level by RP-HPLC); conditions: human
[2] = system: Staphylococcus aureus (NRS 384); conditions: NRS 384, 3 h
Experimental: Trypsin (250 U/mg, pH=8.0) and AMPs (LV-1 to LV-30) were mixed in a ratio of 1:10 (w/w) and added to a reaction buffer (0.2 M sodium phosphate, 1 mM CaCl2), pH 7.5), and then incubated at 37° C. for 3 h.

[3] = system: carbapenem-resistant Escherichia coli (CREC); format: cell-based; conditions: carbapenem-resistant (CREC)
How it was run: (§1)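 Peptides were serially diluted twofold following CLSI susceptibility standards, clinical resistant bacteria were exposed, and the MIC was recorded; five parallel repeats.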

[4] = system: Methicillin-resistant Staphylococcus aureus (MRSA); format: cell-based; conditions: Methicillin-resistant
How it was run: as §1

[5] = system: carbapenem-resistant Klebsiella pneumoniae (CRKP); format: cell-based; conditions: carbapenem-resistant (CRKP)
How it was run: as §1

[6] = system: vancomycin-resistant Enterococcus (VRE); format: cell-based
How it was run: as §1

[7] = system: carbapenem-resistant Pseudomonas aeruginosa (CRPA); format: cell-based; conditions: carbapenem-resistant (CRPA)
How it was run: as §1

[8] = system: Shigella flexneri ATCC 12022; assay: MIC against clinically common bacterial strain; format: cell-based
How it was run: (§2)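 CLSI microdilution, serial 2-fold dilutions; MIC read-out; n = 5 parallel repeats.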

Candida krusei ATCC 6258 = format: cell-based
How it was run: as §2

[9] = system: Pseudomonas aeruginosa ATCC 27853; format: cell-based
How it was run: as §2

[10] = system: Candida tropicalis ATCC 750; format: cell-based
How it was run: as §2

[11] = system: Klebsiella pneumoniae ATCC 700603; format: cell-based
How it was run: as §2

[12] = system: Escherichia coli ATCC 25922; format: cell-based
How it was run: as §2

[13] = system: Salmonella typhimurium ATCC 14028; format: cell-based
How it was run: as §2

[14] = system: Candida glabrata ATCC 15126; format: cell-based
How it was run: as §2

Candida utilis ATCC 9950 = format: cell-based
How it was run: as §2

[15] = system: Corynebacterium ATCC 7715; format: cell-based
How it was run: as §2

Enterococcus ATCC 29212 = format: cell-based
How it was run: as §2

[16] = system: Serratia marcescens ATCC 29021; format: cell-based
How it was run: as §2

[17] = system: Candida albicans ATCC MYA-2876; format: cell-based
How it was run: as §2

[18] = system: Staphylococcus aureus ATCC 25923; format: cell-based
How it was run: as §2

[19] = system: Trichophyton ATCC MYA-4438; format: cell-based
How it was run: as §2

[20] = system: Bacillus subtilis ATCC 6633; format: cell-based
How it was run: as §2

[21] = system: Staphylococcus aureus (NRS 384); assay: microbe, parasite or virus in culture; format: cell-based; conditions: NRS 384
How it was run: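 CLSI broth microdilution with serial twofold dilutions gave MICs against S. aureus NRS 384, with 5 parallel replicates. Levofloxacin and the AMP Cbf-K16 served as positive controls.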

CC(=O)N[C@H](CCCNC(=N)N)C(=O)N[C@H](CCCCN)C(=O)N[C@H](CCC(C)C)C(=O)N[C@H](CCC(C)C)C(=O)N[C@H](Cc1ccc2ccccc2c1)C(=O)N[C@H](CCCNC(=N)N)C(=O)N[C@H](CCC(C)C)C(=O)N[C@H](CCCCN)C(=O)N[C@H](Cc1ccc2ccccc2c1)C(=O)N[C@H](CCCNC(=N)N)C(=O)N[C@H](CCCCN)C(N)=O [LV-14] (Ac-[dR][dK][d(hLeu)][d(hLeu)][d2Nal][dR][d(hLeu)][dK][d2Nal][dR][dK]-NH2)
remaining at 12 h, 0.91 mg/mL [1]: 97.1%
Trypsin MIC [2]: 1 µg/mL
MIC CREC [3]: 8 µg/mL (≈ 4.74 µM)
MIC MRSA [4]: 4 µg/mL (≈ 2.37 µM)
MIC CRKP [5]: 4 µg/mL (≈ 2.37 µM)
MIC VRE [6]: 4 µg/mL (≈ 2.37 µM)
MIC CRPA [7]: 8 µg/mL (≈ 4.74 µM)
MIC Shigella flexneri ATCC 12022 [8]: 4 µg/mL (≈ 2.37 µM)
MIC Candida krusei ATCC 6258 (Candida krusei ATCC 6258): 16 µg/mL (≈ 9.48 µM)
MIC Pseudomonas aeruginosa ATCC 27853 [9]: 4 µg/mL (≈ 2.37 µM)
MIC Candida tropicalis ATCC 750 [10]: 8 µg/mL (≈ 4.74 µM)
MIC Klebsiella pneumoniae ATCC 700603 [11]: 4 µg/mL (≈ 2.37 µM)
MIC Escherichia coli ATCC 25922 [12]: 2 µg/mL (≈ 1.18 µM)
MIC Salmonella typhimurium ATCC 14028 [13]: 4 µg/mL (≈ 2.37 µM)
MIC Candida glabrata ATCC 15126 [14]: 4 µg/mL (≈ 2.37 µM)
MIC Candida utilis ATCC 9950 (Candida utilis ATCC 9950): 4 µg/mL (≈ 2.37 µM)
MIC Corynebacterium ATCC 7715 [15]: 8 µg/mL (≈ 4.74 µM)
MIC Enterococcus ATCC 29212 (Enterococcus ATCC 29212): 4 µg/mL (≈ 2.37 µM)
MIC Serratia marcescens ATCC 29021 [16]: 8 µg/mL (≈ 4.74 µM)
MIC Candida albicans ATCC MYA-2876 [17]: 16 µg/mL (≈ 9.48 µM)
MIC Staphylococcus aureus ATCC 25923 [18]: 2 µg/mL (≈ 1.18 µM)
MIC Trichophyton ATCC MYA-4438 [19]: 8 µg/mL (≈ 4.74 µM)
MIC Bacillus subtilis ATCC 6633 [20]: 2 µg/mL (≈ 1.18 µM)
MIC against Staphylococcus aureus (NRS 384) [21]: 1 µg/mL (≈ 0.592 µM)

CC(=O)N[C@H](CCCNC(=N)N)C(=O)N[C@H](CCCCN)C(=O)N[C@H](C)C(=O)N[C@H](C)C(=O)N[C@H](Cc1ccc2ccccc2c1)C(=O)N[C@H](CCCNC(=N)N)C(=O)N[C@H](C)C(=O)N[C@H](CCCCN)C(=O)N[C@H](Cc1ccc2ccccc2c1)C(=O)N[C@H](CCCNC(=N)N)C(=O)N[C@H](CCCCN)C(N)=O [LV-15] (Ac-[dR][dK][dA][dA][d2Nal][dR][dA][dK][d2Nal][dR][dK]-NH2)
remaining at 12 h, 0.91 mg/mL [1]: 97.3%
Trypsin MIC [2]: 1 µg/mL
MIC CREC [3]: 4 µg/mL (≈ 2.63 µM)
MIC MRSA [4]: 4 µg/mL (≈ 2.63 µM)
MIC CRKP [5]: 8 µg/mL (≈ 5.26 µM)
MIC VRE [6]: 8 µg/mL (≈ 5.26 µM)
MIC CRPA [7]: 8 µg/mL (≈ 5.26 µM)
MIC Shigella flexneri ATCC 12022 [8]: 2 µg/mL (≈ 1.32 µM)
MIC Candida krusei ATCC 6258 (Candida krusei ATCC 6258): 4 µg/mL (≈ 2.63 µM)
MIC Pseudomonas aeruginosa ATCC 27853 [9]: 4 µg/mL (≈ 2.63 µM)
MIC Candida tropicalis ATCC 750 [10]: 8 µg/mL (≈ 5.26 µM)
MIC Klebsiella pneumoniae ATCC 700603 [11]: 4 µg/mL (≈ 2.63 µM)
MIC Escherichia coli ATCC 25922 [12]: 2 µg/mL (≈ 1.32 µM)
MIC Salmonella typhimurium ATCC 14028 [13]: 2 µg/mL (≈ 1.32 µM)
MIC Candida glabrata ATCC 15126 [14]: 4 µg/mL (≈ 2.63 µM)
MIC Candida utilis ATCC 9950 (Candida utilis ATCC 9950): 8 µg/mL (≈ 5.26 µM)
MIC Corynebacterium ATCC 7715 [15]: 8 µg/mL (≈ 5.26 µM)
MIC Enterococcus ATCC 29212 (Enterococcus ATCC 29212): 4 µg/mL (≈ 2.63 µM)
MIC Serratia marcescens ATCC 29021 [16]: 8 µg/mL (≈ 5.26 µM)
MIC Candida albicans ATCC MYA-2876 [17]: 8 µg/mL (≈ 5.26 µM)
MIC Staphylococcus aureus ATCC 25923 [18]: 2 µg/mL (≈ 1.32 µM)
MIC Trichophyton ATCC MYA-4438 [19]: 8 µg/mL (≈ 5.26 µM)
MIC Bacillus subtilis ATCC 6633 [20]: 4 µg/mL (≈ 2.63 µM)
MIC against Staphylococcus aureus (NRS 384) [21]: 1 µg/mL (≈ 0.658 µM)
